Test results as given in US9187429B2, “Phenyl-tetrahydroisoquinoline derivatives” (Hoffmann-La Roche Inc., priority 2012, dated 2015).

Experiments:
CYP11B2 = CYP11B2 (Homo sapiens (Human), UniProt P19099); assay: G-402 cellular enzyme assay, human CYP11B2 (aldosterone release); assay type: cell-based; conditions: G-402 cells expressing human CYP11B2, 1 μM Deoxycorticosterone
Text: (§1) The expression plasmids contains the ORF for either human/cyno CYP11B1 or CYP11B2 under the control of a suitable promoter (CMV-promoter) and a suitable resistance marker (neomycin). Using standard techniques the expression plasmid is transfected into G-402 cells and these cells are then selected for expressing the given resistance markers. Individual cell-clones are then selected and assessed for displaying the desired enzymatic activity using 11-Deoxycorticosterone (Cyp 11B2) or 11-Deoxycortisol (Cyp 11B1) as a substrate.
(§2) G-402 cells expressing CYP11 constructs were established as described above and maintained in McCoy's 5a Medium Modified, ATCC Catalog No. 30-2007 containing 10% FCS and 400 μg/ml G418 (Geneticin) at 37° C. under an atmosphere of 5% CO2/95% air. […] For assaying enzymatic activity, cells were plated onto 96 well plates and incubated for 16 h. An aliquot of the supernatant is then transferred and analyzed for the concentration of the expected product (Aldosterone for CYP11B2; Cortisol for CYP11B1). The concentrations of these steroids can be determined using HTRF assays from CisBio analyzing either Aldosterone or Cortisol.
(§3) Inhibition of the release of produced steroids can be used as a measure of the respective enzyme inhibition by test compounds added during the cellular enzyme assay. The dose dependent inhibition of enzymatic activity by a compound is calculated by means of plotting added inhibitor concentrations (x-axes) vs. measured steroid/product level (y-axes). The inhibition is then calculated by fitting the following 4-parameter sigmoidal function (Morgan-Mercer-Flodin (MMF) model) to the raw data points using the least squares method:
(§4) [formula] wherein, A is the maximum y value, B is the EC50 factor determined using XLFit, C is the minimum y value and D is the slope value.
(§5) EC50 values for compounds claimed herein were tested with the G402-based assay system described. Cyp 11B2 enzyme activity was tested in presence of 1 μM Deoxycorticosterone and variable amounts of inhibitors; Cyp 11B1 enzyme activity was tested in presence of 1 μM Deoxycortisol and variable amounts of inhibitors.

human CYP11B1 = human CYP11B1 (Homo sapiens (Human), UniProt P15538); assay: G-402 cellular enzyme assay, human CYP11B1 (cortisol release); assay type: cell-based; conditions: G-402 cells expressing human CYP11B1, 1 μM Deoxycortisol
Text: as §1, §2, §3, §4, §5

Chain of human CYP11B1 (P15538 25-503): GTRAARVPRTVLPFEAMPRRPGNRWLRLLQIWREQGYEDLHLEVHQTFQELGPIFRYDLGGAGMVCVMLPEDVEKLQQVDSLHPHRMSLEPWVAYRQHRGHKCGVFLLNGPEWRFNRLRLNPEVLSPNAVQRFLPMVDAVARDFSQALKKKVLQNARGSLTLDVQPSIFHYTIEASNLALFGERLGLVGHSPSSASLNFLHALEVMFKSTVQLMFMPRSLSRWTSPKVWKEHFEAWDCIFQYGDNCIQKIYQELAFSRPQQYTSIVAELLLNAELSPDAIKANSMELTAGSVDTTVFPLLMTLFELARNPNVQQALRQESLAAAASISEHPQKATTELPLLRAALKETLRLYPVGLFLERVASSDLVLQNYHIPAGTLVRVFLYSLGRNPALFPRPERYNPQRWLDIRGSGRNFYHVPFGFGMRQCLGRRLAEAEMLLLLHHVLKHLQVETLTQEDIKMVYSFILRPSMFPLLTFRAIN
Chain of CYP11B2 (P19099 25-503): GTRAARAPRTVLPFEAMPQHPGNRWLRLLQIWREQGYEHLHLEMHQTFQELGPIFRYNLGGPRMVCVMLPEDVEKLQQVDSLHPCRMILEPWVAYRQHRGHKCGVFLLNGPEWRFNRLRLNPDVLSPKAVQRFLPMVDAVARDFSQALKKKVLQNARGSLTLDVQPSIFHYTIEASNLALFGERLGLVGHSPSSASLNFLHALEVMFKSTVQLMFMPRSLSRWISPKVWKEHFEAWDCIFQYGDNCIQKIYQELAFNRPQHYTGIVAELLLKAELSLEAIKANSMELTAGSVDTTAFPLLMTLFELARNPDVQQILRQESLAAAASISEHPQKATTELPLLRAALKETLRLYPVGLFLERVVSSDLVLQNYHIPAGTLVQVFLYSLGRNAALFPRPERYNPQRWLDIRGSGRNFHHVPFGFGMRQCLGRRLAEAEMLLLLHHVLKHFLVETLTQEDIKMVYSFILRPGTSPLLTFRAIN

| SMILES | EC50 (CYP11B2) | EC50 (human CYP11B1) |
| --- | --- | --- |
| CN(C)C(=O)COC1CCc2c(-c3ccc(C(F)(F)F)cc3)cncc21 (racemic) [Example 101, (rac)-N,N-Dimethyl-2-(4-(4-(trifluoromethyl)phenyl)-6,7-dihydro-5H-cyclopenta[c]pyridin-7-yloxy)acetamide] | 26.9 nM | 1270 nM |
| NC(=O)COC1CCc2c(-c3ccc(C(F)(F)F)cc3)cncc21 (racemic) [Example 102, (rac)-2-(4-(4-(Trifluoromethyl)phenyl)-6,7-dihydro-5H-cyclopenta[c]pyridin-7-yloxy)acetamide] | 1.1 nM | 40.8 nM |
| CC1(COC2CCc3c(-c4ccc(C(F)(F)F)cc4)cncc32)COC1 (racemic) [Example 103, (rac)-7-((3-Methyloxetan-3-yl)methoxy)-4-(4-(trifluoromethyl)phenyl)-6,7-dihydro-5H-cyclopenta[c]pyridine] | 0.2 nM | 2.3 nM |
| OC1CCCc2c(-c3ccc(C(F)(F)F)cc3)cncc21 (racemic) [Example 104, (rac)-4-(4-(Trifluoromethyl)phenyl)-5,6,7,8-tetrahydroisoquinolin-8-ol] | 14.6 nM | 710 nM |
| CCC(=O)N[C@@H]1c2cncc(-c3ccc(C(F)(F)F)cc3)c2CC[C@H]1C (single isomer, unassigned) [Example 67, N-[(7R,8S or 7S,8R)-7-Methyl-4-(4-trifluoromethyl-phenyl)-5,6,7,8-tetrahydro-isoquinolin-8-yl]-propionamide] | 764 nM | 8470 nM |
| CCC(=O)N[C@@H]1c2cncc(-c3ccc(C(F)(F)F)cc3)c2CC[C@@H]1C (single isomer, unassigned) [Example 68, N-[(7S,8S or 7R,8R)-7-Methyl-4-(4-trifluoromethyl-phenyl)-5,6,7,8-tetrahydro-isoquinolin-8-yl]-propionamide] | 658 nM | 10700 nM |
| CCC(=O)N[C@H]1c2cncc(-c3ccc(C(F)(F)F)cc3)c2CC[C@@H]1C (single isomer, unassigned) [Example 69, N-[(7S,8R or 7R,8S)-7-Methyl-4-(4-trifluoromethyl-phenyl)-5,6,7,8-tetrahydro-isoquinolin-8-yl]-propionamide] | 11 nM | 742 nM |
| CCC(=O)N[C@H]1c2cncc(-c3ccc(C(F)(F)F)cc3)c2CC[C@H]1C (single isomer, unassigned) [Example 70, N-[(7R,8R or 7S,8S)-7-Methyl-4-(4-trifluoromethyl-phenyl)-5,6,7,8-tetrahydro-isoquinolin-8-yl]-propionamide] | 42 nM | 3030 nM |
| Cc1ccc(C2(O)CCCc3c(-c4ccc(C#N)cc4)cncc32)cc1C (single isomer, unassigned; (+)) [Example 15, (+)-(S or R)-4-(8-(3,4-Dimethylphenyl)-8-hydroxy-5,6,7,8-tetrahydroisoquinolin-4-yl)benzonitrile] | 5 nM | 21 nM |
| C[C@@H](O)C(=O)NC1CCc2c(-c3ccc(C(F)(F)F)cc3)cncc21 (single isomer, unassigned; (+)) [Example 54, (+)-(R)-2-Hydroxy-N—((R or S)-4-(4-(trifluoromethyl)phenyl)-6,7-dihydro-5H-cyclopenta[c]pyridin-7-yl)propanamide] | 89 nM | 3170 nM |
| CCS(=O)(=O)NC1CCc2c(-c3ccc(C(F)(F)F)cc3)cncc21 (single isomer, unassigned; (+)) [Example 66, (+)-(R or S)—N-(4-(4-(Trifluoromethyl)phenyl)-6,7-dihydro-5H-cyclopenta[c]pyridin-7-yl)ethanesulfonamide] | 280 nM | 14200 nM |
| CCS(=O)(=O)NC1CCc2c(-c3ccc(C(F)(F)F)c(F)c3)cncc21 (single isomer, unassigned; (+)) [Example 73, (+)-(R or S)—N-(4-(3-Fluoro-4-(trifluoromethyl)phenyl)-6,7-dihydro-5H-cyclopenta[c]pyridin-7-yl)ethanesulfonamide] | 44.4 nM | 1870 nM |
| OC1CCCc2c(-c3ccc(C(F)(F)F)cc3)cncc21 (single isomer, unassigned; (+)) [Example 106, (+)-(R or S)-4-(4-(Trifluoromethyl)phenyl)-5,6,7,8-tetrahydroisoquinolin-8-ol] | 4.6 nM | 159 nM |
| Cc1ccc(C2(O)CCCc3c(-c4ccc(C#N)cc4)cncc32)cc1C (single isomer, unassigned; (-)) [Example 16, (−)-(R or S)-4-(8-(3,4-Dimethylphenyl)-8-hydroxy-5,6,7,8-tetrahydroisoquinolin-4-yl)benzonitrile] | 72 nM | 488 nM |

Next, values leading:

| EC50 (CYP11B2) | EC50 (human CYP11B1) | SMILES |
| --- | --- | --- |
| 12 nM | 174 nM | CCC(=O)NC1CCc2c(-c3ccc(C#N)cc3)cncc21 (single isomer, unassigned; (+)) [Example 19, (+)-(R or S)—N-(4-(4-Cyanophenyl)-6,7-dihydro-5H-cyclopenta[c]pyridin-7-yl)propionamide] |
| 31 nM | 3690 nM | CCC(=O)NC1CCCc2c(-c3ccc(C(F)(F)F)cc3)cncc21 (single isomer, unassigned; (+)) [Example 23, (+)-(R or S)—N-(4-(4-(Trifluoromethyl)phenyl)-5,6,7,8-tetrahydroisoquinolin-8-yl)propionamide] |
| 17 nM | 503 nM | CCC(=O)NC1CCCc2c(-c3ccc(Cl)cc3)cncc21 (single isomer, unassigned; (+)) [Example 26, (+)-(R or S)—N-(4-(4-Chlorophenyl)-5,6,7,8-tetrahydroisoquinolin-8-yl)propionamide] |
| 4 nM | 241 nM | CCC(=O)NC1CCCc2c(-c3ccc(F)c(C)c3)cncc21 (single isomer, unassigned; (+)) [Example 29, (+)-(R or S)—N-(4-(4-fluoro-3-methylphenyl)-5,6,7,8-tetrahydroisoquinolin-8-yl)propionamide] |
| 19 nM | 617 nM | CCC(=O)NC1CCCc2c(-c3ccc(Cl)cc3F)cncc21 (single isomer, unassigned; (+)) [Example 32, (+)-(R or S)—N-(4-(4-Chloro-2-fluorophenyl)-5,6,7,8-tetrahydroisoquinolin-8-yl)propionamide] |
| 71 nM | 6680 nM | CCC(=O)NC1CCCc2c(-c3ccc(C(F)(F)F)cc3F)cncc21 (single isomer, unassigned; (+)) [Example 35, (+)-(R or S)—N-(4-(2-Fluoro-4-(trifluoromethyl)phenyl)-5,6,7,8-tetrahydroisoquinolin-8-yl)propionamide] |
| 7 nM | 214 nM | CCC(=O)NC1CCCc2c(-c3ccc(Cl)c(F)c3)cncc21 (single isomer, unassigned; (+)) [Example 38, (+)-(R or S)—N-(4-(4-Chloro-3-fluorophenyl)-5,6,7,8-tetrahydroisoquinolin-8-yl)propionamide] |
| 16 nM | 1810 nM | CCC(=O)NC1CCCc2c(-c3ccc(C(F)(F)F)c(F)c3)cncc21 (single isomer, unassigned; (+)) [Example 41, (+)-(R or S)—N-(4-(3-Fluoro-4-(trifluoromethyl)phenyl)-5,6,7,8-tetrahydroisoquinolin-8-yl)propionamide] |
| 25 nM | 2260 nM | CCC(=O)NC1CCc2c(-c3ccc(C(F)(F)F)cc3)cncc21 (single isomer, unassigned; (+)) [Example 51, (+)-(R or S)—N-(4-(4-(Trifluoromethyl)phenyl)-6,7-dihydro-5H-cyclopenta[c]pyridin-7-yl)propionamide] |
| 7 nM | 103 nM | CCC(=O)NC1CCc2c(-c3ccc(Cl)c(F)c3)cncc21 (single isomer, unassigned; (+)) [Example 57, (+)-(R or S)—N-(4-(4-Chloro-3-fluorophenyl)-6,7-dihydro-5H-cyclopenta[c]pyridin-7-yl)propionamide] |
| 2 nM | 64 nM | CCC(=O)NC1CCc2c(-c3ccc(F)c(C)c3)cncc21 (single isomer, unassigned; (+)) [Example 60, (+)-(R or S)—N-(4-(4-Fluoro-3-methylphenyl)-6,7-dihydro-5H-cyclopenta[c]pyridin-7-yl)propionamide] |
| 30 nM | 1720 nM | CCC(=O)NC1CCc2c(-c3ccc(C(F)(F)F)cc3F)cncc21 (single isomer, unassigned; (+)) [Example 63, (+)-(R or S)—N-(4-(2-Fluoro-4-(trifluoromethyl)phenyl)-6,7-dihydro-5H-cyclopenta[c]pyridin-7-yl)propionamide] |
